These results are taken from US8796256B2 (Janssen Pharmaceutica NV, priority 2010, dated 2014).

Assay [1] deals with T1, ERR1 (also known as ERR-α or ERR-1) (Homo sapiens, UniProt P11474).
T1 sequence (P11474 193-421 limits assumed): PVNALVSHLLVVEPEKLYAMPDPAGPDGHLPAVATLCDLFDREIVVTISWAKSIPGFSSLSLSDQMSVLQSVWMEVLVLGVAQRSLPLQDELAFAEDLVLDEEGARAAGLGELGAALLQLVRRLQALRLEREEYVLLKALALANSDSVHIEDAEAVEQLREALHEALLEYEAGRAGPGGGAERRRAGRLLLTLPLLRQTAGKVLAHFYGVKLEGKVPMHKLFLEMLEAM
In words: TR-FRET assay (disruption of co-activator peptide binding to ERR1 LBD). It is filed as biochemical. The note with it: 6 nM 6His-ERR1LBD, 6 nM GST-SRC-2 peptide; average of 3 independent experiments. In a few lines: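 His-tagged ERR1 ligand-binding domain and GST-labelled SRC-2 peptide, each 6 nM, equilibrated at 25° C for 4-18 h in Tris pH 8/Hepes/KCl/DTT/delipidated BSA buffer. Compound-induced loss of co-activator binding read as Eu cryptate→XL665 energy transfer; values from hyperbolic curve fits averaged over 3 independent runs.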

The next assay concerns Zucker fa/fa male rats. In words: Zucker fa/fa Rat Model Assay. It is filed as in vivo. The note with it: po, 120 h, 10 mg/kg orally once a day for 4 days. The text has this: Zucker fa/fa is a monogenic model of frank diabetes due to a mutation on the fa gene truncating the leptin receptor and preventing its interaction with its peptide hormone. This mutation results in a hyperphagic phenotype and the rodent develops obesity, hyperlipidemia, fasting hyperglycemia and insulin resistance. Zucker fa/fa male rats were received at four weeks of age and allowed to acclimate for one week. At five weeks of age the animals were single housed in cages in a temperature-controlled room with 12-hour light/dark cycle. The rats were allowed ad libitum access to water and food and throughout the study were maintained on a Purina 5008 diet. Animals were sorted based primarily on fed insulin levels and circulating triglycerides. Animals were dosed orally once a day (10 mg/kg) in the morning for 4 days. The vehicle used was either 20% HPβCD (Hydroxypropyl Beta Cyclodextrin) or 15% Vitamin E/30% PEG-400 (Polyethylene Glycol 400). Fed insulin and triglycerides were measured using blood collected from the tail vein at day 5. Serum plasma samples were prepared by centrifugation in EDTA (Ethylenediaminetetraacetic acid) containing tubes, transferred into 96 well plates and stored at −80° C.

Setting [2] is: blood from tail vein at day 5, read-out: % Change Fed Insulin Levels.
Where [3] appears, read: blood from tail vein at day 5, read-out: % Change Fed Triglyceride Levels.

Like-named read-outs stand apart in the source and are kept apart here.

As for `O=C(O)CN1C(=O)S/C(=C\c2ccc3c(c2)nnn3Cc2ccc(Cl)cc2C(F)(F)F)C1=O` [Compound 260, [(5Z)-5-({1-[4-Chloro-2-(trifluoromethyl)benzyl]-1H-benzotriazol-5-yl}methylidene)-2,4-dioxo-1,3-thiazolidin-3-yl]acetic acid], in assay [1], the EC50 (in general, the midpoint of the concentration-response curve) was 41 nM. The change in vivo at 10 mg/kg in the assay with Zucker fa/fa male rats (setting [2]) is -50%; in the assay with Zucker fa/fa male rats (setting [3]), -23%.
In assay [1], `CS(=O)(=O)CCN1CCC(N2C(=O)S/C(=C\c3ccc4c(cnn4Cc4ccc(Cl)cc4C(F)(F)F)c3)C2=O)CC1` [Compound 149, (5Z)-5-({1-[4-Chloro-2-(trifluoromethyl)benzyl]-1H-indazol-5-yl}methylidene)-3-{1-[2-(methylsulfonyl)ethyl]piperidin-4-yl}-1,3-thiazolidine-2,4-dione] returned an EC50 of 26 nM. In addition, the change in vivo at 10 mg/kg with Zucker fa/fa male rats (setting [2]) is -35%; in the assay with Zucker fa/fa male rats (setting [3]), 10%.
For `COc1ccc(Cn2ncc3cc(/C=C4\SC(=O)N(C5CCC(C(=O)O)CC5)C4=O)ccc32)c(C(F)(F)F)c1` (stereo not drawn) [Compound 22, 4-[(5Z)-5-({1-[4-Methoxy-2-(trifluoromethyl)benzyl]-1H-indazol-5-yl}methylidene)-2,4-dioxo-1,3-thiazolidin-3-yl)cyclohexanecarboxylic acid] the same measures were 8 nM, -11% and 32%.
For `CN1CC[C@H](N2C(=O)S/C(=C\c3ccc4c(cnn4Cc4ccc(Cl)cc4C(F)(F)F)c3)C2=O)C1` [Compound 143, (5Z)-5-({1-[4-Chloro-2-(trifluoromethyl)benzyl]-1H-indazol-5-yl}methylidene)-3-[(3S)-1-methylpyrrolidin-3-yl]-1,3-thiazolidine-2,4-dione] the same measures were 25 nM, -49% and -29%.
In turn, `CN1CC[C@@H](N2C(=O)S/C(=C\c3ccc4c(cnn4Cc4ccc(Cl)cc4C(F)(F)F)c3)C2=O)[C@H](F)C1` (relative stereo) [Compound 277, (5Z)-5-({1-[4-Chloro-2-(trifluoromethyl)benzyl]-1H-indazol-5-yl}methylidene)-3-(trans-3-fluoro-1-methylpiperidin-4-yl)-1,3-thiazolidine-2,4-dione] returned an EC50 in assay [1] of 58 nM. Moreover, the change in vivo at 10 mg/kg with Zucker fa/fa male rats (setting [2]) was -73%; in the assay on Zucker fa/fa male rats (setting [3]), -57%.
In turn, `CS(=O)(=O)NC(=O)CN1C(=O)S/C(=C\c2ccc3c(cnn3Cc3ccc(Cl)cc3C(F)(F)F)c2)C1=O` [Compound 126, 2-[(5Z)-5-({1-[4-Chloro-2-(trifluoromethyl)benzyl]-1H-indazol-5-yl}methylidene)-2,4-dioxo-1,3-thiazolidin-3-yl]-N-(methylsulfonyl)acetamide] yielded an EC50 in assay [1] of 18 nM. Also, the change in vivo at 10 mg/kg in the assay on Zucker fa/fa male rats (setting [2]) is -14%; with Zucker fa/fa male rats (setting [3]) it was 13%.
For `CN1CC[C@H](N2C(=O)S/C(=C\c3ccc4c(cnn4Cc4ccc(Cl)cc4C(F)(F)F)c3)C2=O)[C@@H](F)C1` [Compound 384, (5Z)-5-({1-[4-Chloro-2-(trifluoromethyl)benzyl]-1H-indazol-5-yl}methylidene)-3-[(3S,4S)-3-fluoro-1-methylpiperidin-4-yl]-1,3-thiazolidine-2,4-dione] the same measures were 22 nM, -52% and -51%.
The compound `O=C1S/C(=C\c2ccc3c(cnn3Cc3ccc(Cl)cc3C(F)(F)F)c2)C(=O)N1C[C@H]1COCCN1` [Compound 170, (5Z)-5-({1-[4-Chloro-2-(trifluoromethyl)benzyl]-1H-indazol-5-yl}methylidene)-3-[(3S)-morpholin-3-ylmethyl]-1,3-thiazolidine-2,4-dione] showed an EC50 in assay [1] of 15 nM. The figures for the change in vivo at 10 mg/kg with Zucker fa/fa male rats (setting [2]) and with Zucker fa/fa male rats (setting [3]) were -52% and -61%, respectively.
`NS(=O)(=O)NC(=O)CN1C(=O)S/C(=C\c2ccc3c(cnn3Cc3ccc(Cl)cc3C(F)(F)F)c2)C1=O` [Compound 31, 2-[(5Z)-5-({1-[4-Chloro-2-(trifluoromethyl)benzyl]-1H-indazol-5-yl}methylidene)-2,4-dioxo-1,3-thiazolidin-3-yl]-N-sulfamoylacetamide]: it took 19 nM to reach a half-maximal effect in assay [1] (EC50). For the same compound, the change in vivo at 10 mg/kg with Zucker fa/fa male rats (setting [2]) is -51%; in the assay with Zucker fa/fa male rats (setting [3]) it was -14%.
In the case of `N=C(N)NOCCN1C(=O)S/C(=C\c2ccc3c(cnn3Cc3ccc(Cl)cc3C(F)(F)F)c2)C1=O` [Compound 91, 1-{2-[(5Z)-5-({1-[4-Chloro-2-(trifluoromethyl)benzyl]-1H-indazol-5-yl}methylidene)-2,4-dioxo-1,3-thiazolidin-3-yl]ethoxy}guanidine], in assay [1], the EC50 was determined as 58 nM. Further, the values for the change in vivo at 10 mg/kg with Zucker fa/fa male rats (setting [2]) and in the assay with Zucker fa/fa male rats (setting [3]) were -68% and -60%, respectively.
Consider `O=C1S/C(=C\c2ccc3c(cnn3Cc3ccc(Cl)cc3C(F)(F)F)c2)C(=O)N1O` [Compound 288, (5Z)-5-({1-[4-Chloro-2-(trifluoromethyl)benzyl]-1H-indazol-5-yl}methylidene)-3-hydroxy-1,3-thiazolidine-2,4-dione], for which the EC50 in assay [1] is 16 nM. Further, the change in vivo at 10 mg/kg in the assay on Zucker fa/fa male rats (setting [2]) is -35%; in the assay with Zucker fa/fa male rats (setting [3]), -29%.
For `O=C1S/C(=C\c2ccc3c(cnn3Cc3ccc(Cl)cc3C(F)(F)F)c2)C(=O)N1CCN1CCCC1` [Compound 111, (5Z)-5-({1-[4-Chloro-2-(trifluoromethyl)benzyl]-1H-indazol-5-yl}methylidene)-3-(2-pyrrolidin-1-ylethyl)-1,3-thiazolidine-2,4-dione] the same measures were 17 nM, -49% and -30%.
For `CN(C)S(=O)(=O)NC(=O)CN1C(=O)S/C(=C\c2ccc3c(cnn3Cc3ccc(Cl)cc3C(F)(F)F)c2)C1=O` [Compound 35, 2-[(5Z)-5-({1-[4-Chloro-2-(trifluoromethyl)benzyl]-1H-indazol-5-yl}methylidene)-2,4-dioxo-1,3-thiazolidin-3-yl]-N-(dimethylsulfamoyl) acetamide] the same measures were 23 nM, -29% and -46%.
For `O=C(O)CN1CCC(N2C(=O)S/C(=C\c3ccc4c(cnn4Cc4ccc(Cl)cc4C(F)(F)F)c3)C2=O)CC1` [Compound 146, {4-[(5Z)-5-({1-[4-Chloro-2-(trifluoromethyl)benzyl]-1H-indazol-5-yl}methylidene)-2,4-dioxo-1,3-thiazolidin-3-yl]piperidin-1-yl}acetic acid] the same measures were 16 nM, -26% and -14%.
`O=C(O)C1CCC(N2C(=O)S/C(=C\c3ccc4c(cnn4Cc4ccc(Cl)cc4C(F)(F)F)c3)C2=O)CC1` (stereo not drawn) [Compound 73, 4-[(5Z)-5-({1-[4-Chloro-2-(trifluoromethyl)benzyl]-1H-indazol-5-yl}methylidene)-2,4-dioxo-1,3-thiazolidin-3-yl]cyclohexanecarboxylic acid] yielded an EC50 in assay [1] of 12 nM. Also, the change in vivo at 10 mg/kg in the assay with Zucker fa/fa male rats (setting [2]) was -30%; with Zucker fa/fa male rats (setting [3]), -19%.
`N[C@@H](CO)CN1C(=O)S/C(=C\c2ccc3c(cnn3Cc3ccc(Cl)cc3C(F)(F)F)c2)C1=O` [Compound 167, (5Z)-3-[(2R)-2-Amino-3-hydroxypropyl]-5-({1-[4-chloro-2-(trifluoromethyl)benzyl]-1H-indazol-5-yl}methylidene)-1,3-thiazolidine-2,4-dione] yielded an EC50 in assay [1] of 23 nM. Further, the change in vivo at 10 mg/kg is -33% in the assay on Zucker fa/fa male rats (setting [2]) and -45% in the assay with Zucker fa/fa male rats (setting [3]).
For `CN1CC[C@@H](N2C(=O)S/C(=C\c3ccc4c(cnn4Cc4ccc(Cl)cc4C(F)(F)F)c3)C2=O)[C@H](F)C1` [Compound 383, (5Z)-5-({1-[4-Chloro-2-(trifluoromethyl)benzyl]-1H-indazol-5-yl}methylidene)-3-[(3R,4R)-3-fluoro-1-methylpiperidin-4-yl]-1,3-thiazolidine-2,4-dione] the same measures were 23 nM, -67% and -68%.
For `CN1CCC[C@H]1CN1C(=O)S/C(=C\c2ccc3c(cnn3Cc3ccc(Cl)cc3C(F)(F)F)c2)C1=O` [Compound 121, (5Z)-5-({1-[4-Chloro-2-(trifluoromethyl)benzyl]-1H-indazol-5-yl}methylidene)-3-{[(2S)-1-methylpyrrolidin-2-yl]methyl}-1,3-thiazolidine-2,4-dione] the same measures were 5 nM, -59% and -37%.
